In test [1] the test system is panel of purified HLA DR molecules. It counts as binding, human.
Test [2] addresses T1, DRB1*0301 (DR3w17) (Homo sapiens, UniProt P01903+P01911, A100K/A102G/A103R/A169T/F55Y/I96L/K41T/L162R/M171V/P40S/Q125H/Q178H/Q39Y/R42S/S66N/T106N/T262R/W38E/Y61H). The experiment in a line: biochemical. Particulars: Binding Capacity (IC50% nM) DR3.
Test [3] deals with T2, DRB1*0401 (DR4w4) (Homo sapiens, UniProt P01903+P01911, A100K/A169T/F76Y/I96L/K127E/L162R/M171V/N62H/P40V/Q125Y/R42H/S133A/S149N/S66Y/V115G/V209L/W38E).
T2 construct: Epstein-Barr virus (EBV) transformed homozygous cell lines were used as sources; endogenous in cells; host or cells: PREISS (EBV-transformed homozygous B cell line)
The experiment in a line: biochemical. It counts as binding.

The target in test [4] is T3, DRB1*1201 (DR5w12) (Homo sapiens, UniProt P01903+P01911, A100R/A169T/D57E/D86V/F55L/H45Y/K41T/L162R/M171V/P40S/Q125H/Q178H/Q39Y/Q99D/R42G/S66L/T262R/V114A/V67L/W38E/Y59H/Y61H/Y89S).
T3 construct: Epstein-Barr virus (EBV) transformed homozygous cell lines were used as sources; endogenous in cells; host or cells: Herluf (EBV-transformed homozygous B cell line)
Briefly: biochemical. The format is binding.

Test [5] addresses T4, DRB1*0405 (DR4w15) (Homo sapiens, UniProt P01903+P01911, A100R/A169T/D86S/F76Y/I96L/K127E/L162R/M171V/N62H/P40V/Q125Y/R42H/S133A/S149N/S66Y/V115G/V209L/W38E).
T4 construct: Epstein-Barr virus (EBV) transformed homozygous cell lines were used as sources; endogenous in cells; host or cells: KT3 (EBV-transformed homozygous B cell line)
The experiment in a line: biochemical. It counts as binding.

Test [6] addresses T1, DRB1*0301 (DR3w17). As to conditions: read-out: Binding Capacity (IC 50% nM) Other Alleles DR3.
For test [7], the target named is T5, DRB1*1101 (DR5w11) (Homo sapiens, UniProt P01903+P01911, A100R/A169T/A87E/I96F/K41T/L162R/M171V/P40S/Q125H/Q178H/Q39Y/Q99D/R42S/S66Y/T262R/V115G/W38E).
T5 construct: Epstein-Barr virus (EBV) transformed homozygous cell lines were used as sources; endogenous in cells; host or cells: SWEIG (EBV-transformed homozygous B cell line)
T5 sequence (P01903 26-254, other chains not shown): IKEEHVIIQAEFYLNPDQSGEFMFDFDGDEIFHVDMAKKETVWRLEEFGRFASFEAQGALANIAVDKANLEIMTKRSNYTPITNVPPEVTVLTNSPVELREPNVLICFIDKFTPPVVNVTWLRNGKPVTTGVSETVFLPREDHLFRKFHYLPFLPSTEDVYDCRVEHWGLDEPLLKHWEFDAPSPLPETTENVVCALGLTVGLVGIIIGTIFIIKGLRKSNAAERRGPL
The experiment in a line: biochemical. It counts as binding.

Test [8] deals with T6, DRB5*0101 (DR2w2a) (Homo sapiens, UniProt P01903+Q30154).
T6 construct: Epstein-Barr virus (EBV) transformed homozygous cell lines were used as sources; endogenous in cells; host or cells: GM3107 (EBV-transformed homozygous B cell line)
Briefly: biochemical. It counts as binding.

For test [9], the target named is T7, DRB1*1501 (DR2w2b) (Homo sapiens, UniProt P01903+P01911).
T7 construct: expressed in transfected cells; host or cells: transfected fibroblasts L466.1
Briefly: biochemical. The format is binding.

Test [10] addresses T8, DRB1*0802 (DR8w2) (Homo sapiens, UniProt P01903+P01911, A100R/A103L/A169T/F76Y/H45Y/I96F/K41T/L162R/M171V/P40S/Q125H/Q178H/Q39Y/Q99D/R218S/R42G/S66Y/V115G/W38E).
T8 construct: Epstein-Barr virus (EBV) transformed homozygous cell lines were used as sources; endogenous in cells; host or cells: OLL (EBV-transformed homozygous B cell line)
The experiment in a line: biochemical. It counts as binding.

Test [11] deals with T9, DRB1*0101 (DR1) (Homo sapiens, UniProt P01903+P01911, A100R/D57E/F55L/F60I/F76Y/I96L/L162R/M171V/P40L/Q125E/R42F/V115G/Y59C).
T9 construct: Epstein-Barr virus (EBV) transformed homozygous cell lines were used as sources; endogenous in cells; host or cells: LG2 (EBV-transformed homozygous B cell line)
Briefly: biochemical. The format is binding. Particulars: Binding Capacity (IC 50% nM) DR1,4,7 DRB1.

The target in test [12] is T10, DRB1*1302 (DR6w19) (Homo sapiens, UniProt P01903+P01911, A100E/A169T/K41T/L162R/M171V/P40S/Q125H/Q178H/Q39Y/Q99D/R42S/S66N/T262R/V115G/W38E/Y61H).
T10 construct: Epstein-Barr virus (EBV) transformed homozygous cell lines were used as sources; the source of Class II molecules the EBV transformed homozygous cell line H0301; endogenous in cells; host or cells: H0301 (EBV-transformed homozygous B cell line)
The experiment in a line: biochemical. It counts as binding.

The target in test [13] is T11, DRB1*0901 (DR9) (Homo sapiens, UniProt P01903+P01911, A100R/A103E/D57H/D86V/F55Y/F60I/F76Y/I96F/K127E/L162R/M171V/P40D/Q125H/Q99R/R33Q/R42F/S133A/S66N/T210M/V115G/W38K/Y107V/Y59G/Y89S).
T11 construct: Epstein-Barr virus (EBV) transformed homozygous cell lines were used as sources; endogenous in cells
The experiment in a line: biochemical. The format is binding.

Test [14] deals with T12, DRB1*0701 (DR7) (Homo sapiens, UniProt P01903+P01911, A100R/A102G/A103Q/D57E/D86V/E43K/F76Y/K127E/L162R/M171V/P40G/Q125H/Q99D/R33Q/R42Y/R54Q/S133A/S66F/T210M/V115G/Y107V/Y59L/Y89S).
T12 construct: Epstein-Barr virus (EBV) transformed homozygous cell lines were used as sources; endogenous in cells; host or cells: PITOUT (EBV-transformed homozygous B cell line)
Briefly: biochemical. It counts as binding.

Read-outs that look alike come from different tables or passages of the source. No end group written: not given here.

As for `CC[C@H](C)[C@H](NC(=O)[C@H](CO)NC(=O)[C@@H](N)CO)C(=O)N[C@H](C(=O)N[C@@H](Cc1ccccc1)C(=O)NCC(=O)N[C@@H](C)C(=O)N[C@@H](Cc1ccccc1)C(=O)N1CCC[C@H]1C(=O)N[C@@H](CO)C(=O)N[C@@H](CC(C)C)C(=O)N[C@@H](Cc1c[nH]cn1)C(=O)N[C@@H](CO)C(=O)NCC(=O)N[C@@H](CS)C(=O)N[C@@H](CS)C(=O)O)[C@@H](C)CC` [Peptide 1136.38], the “Total Alleles Bound” value in test [1] is given as 6.

Turning to LWWSTMYLTHHYFVDL [Peptide 1136.46], the IC50 in [2] is above 10000 nM; in [3] (Binding Capacity (IC 50% nM) DR1,4,7 DR4w4), below 1000 nM; in test [3] (Binding Capacity (IC50% nM) DR4w4), 985 nM; in test [4] (Binding Capacity (IC50% nM) DR5w12) it was above 10000 nM; in test [4] (read-out: Binding Capacity (IC 50% nM) Other Alleles DR5w12), above 1000 nM; in test [5] (Binding Capacity (IC50% nM) DR4w15), above 10000 nM. Moreover, the IC50 was above 1000 nM in test [5] (read-out: Binding Capacity (IC 50% nM) Other Alleles DR4w15); above 1000 nM in test [6]; above 10000 nM in test [7] (Binding Capacity (IC50% nM) DR5w11); above 1000 nM in [7] (read-out: Binding Capacity (IC 50% nM) Other Alleles DR5w11); above 10000 nM in test [8] (Binding Capacity (IC50% nM) DR2w2a); above 1000 nM in [8] (read-out: Binding Capacity (IC 50% nM) Other Alleles DR2w2a). In addition, the IC50 is above 10000 nM in [9] (Binding Capacity (IC50% nM) DR2w2b); above 1000 nM in test [9] (read-out: Binding Capacity (IC 50% nM) Other Alleles DR2w2b); above 10000 nM in test [10] (Binding Capacity (IC50% nM) DR8w2); above 1000 nM in [10] (read-out: Binding Capacity (IC 50% nM) Other Alleles DR8w2); below 1000 nM in test [11]; above 10000 nM in test [12] (Binding Capacity (IC50% nM) DR6w19). Besides, the IC50 in test [12] (read-out: Binding Capacity (IC 50% nM) Other Alleles DR6w19) was above 1000 nM; in test [13] (Binding Capacity (IC50% nM) DR9), above 10000 nM; in test [13] (read-out: Binding Capacity (IC 50% nM) Other Alleles DR9), above 1000 nM; in [14] (Binding Capacity (IC50% nM) DR7), 5810 nM; in test [14] (read-out: Binding Capacity (IC 50% nM) DR1,4,7 DR7), above 1000 nM.

The record behind these values is US6413517B1, “Identification of broadly reactive DR restricted epitopes” (Epimmune, Inc., priority 1997, dated 2002).
